# Results reported in US9149038B2, “4-amino-6-(heterocyclic)picolinates and 6-amino-2-(heterocyclic)pyrimidine-4-carboxylates and their use as herbicides” (Dow AgroSciences LLC, priority 2013, dated 2015).
# Where two headings read alike, the source gives them in different places.
# What was measured:
# [1] = system: Key Broadleaf Weed and Crop Species; assay: Post-Emergent Test II: postemergent herbicidal activity, visual rating after 14 d (Table 7); format: in vivo; conditions: post-emergence, 336 h; for pest or weed control at 35 g/ha: 35 g ai/ha; for pest or weed control at 70 g/ha: 70 g ai/ha; for pest or weed control at 140 g/ha: 140 g ai/ha
# From the text: (§1) Herbicidal evaluations were made visually on a scale of 0 to 100 where 0 represents no activity and 100 represents complete plant death.
# (§2) Seeds or nutlets of the desired test plant species were planted in Sun Gro Metro-Mix® 360 planting mixture, which typically has a pH of 6.0 to 6.8 and an organic matter content of about 30 percent, in plastic pots with a surface area of 64 square centimeters (cm^2). When required to ensure good germination and healthy plants, a fungicide treatment and/or other chemical or physical treatment was applied. The plants were grown for 7-21 d in a greenhouse with an approximate 15 h photoperiod which was maintained at about 23-29° C. during the day and 22-28° C. during the night. Nutrients and water were added on a regular basis and supplemental lighting was provided with overhead metal halide 1000-Watt lamps as necessary. The plants were employed for testing when they reached the first or second true leaf stage.
# (§3) A weighed amount, determined by the highest rate to be tested, of each test compound was placed in a 25 mL glass vial and was dissolved in 4 mL of a 97:3 v/v mixture of acetone and DMSO to obtain concentrated stock solutions. […] The concentrated stock solutions obtained were diluted with 20 mL of an aqueous mixture containing acetone, water, isopropyl alcohol, DMSO, Atplus 411F crop oil concentrate, and Triton® X-155 surfactant in a 48.5:39:10:1.5:1.0:0.02 v/v ratio to obtain spray solutions containing the highest application rates. Additional application rates were obtained by serial dilution of 12 mL of the high rate solution into a solution containing 2 mL of a 97:3 v/v mixture of acetone and DMSO and 10 mL of an aqueous mixture containing acetone, water, isopropyl alcohol, DMSO, Atplus 411F crop oil concentrate, and Triton X-155 surfactant in a 48.5:39:10:1.5:1.0:0.02 v/v ratio to obtain ½×, ¼×, ⅛× and 1/16× rates of the high rate. Compound requirements are based upon a 12 mL application volume at a rate of 187 liters per hectare (L/ha). Formulated compounds were applied to the plant material with an overhead Mandel track sprayer equipped with 8002E nozzles calibrated to deliver 187 L/ha over an application area of 0.503 square meters at a spray height of 18 inches (43 cm) above the average plant canopy height. Control plants were sprayed in the same manner with the solvent blank.
# (§4) The treated plants and control plants were placed in a greenhouse as described above and watered by subirrigation to prevent wash-off of the test compounds. After 14 d, the condition of the test plants as compared with that of the untreated plants was determined visually and scored on a scale of 0 to 100 percent where 0 corresponds to no injury and 100 corresponds to complete kill and are presented as indicated in Table 4.
# [2] = system: Key Grass and Sedge Weeds as well as Grass Crops; assay: Post-Emergent Test II: postemergent herbicidal activity, visual rating after 14 d (Table 8); format: in vivo; conditions: post-emergence, 336 h; for pest or weed control at 35 g/ha: 35 g ai/ha; for pest or weed control at 70 g/ha: 70 g ai/ha; for pest or weed control at 140 g/ha: 140 g ai/ha
# From the text: as §1, §2, §3, §4
# [3] = lambsquarters (Chenopodium album), read-out: Visual Growth Reduction (%) 14 Days After Application CHEAL
# [4] = oilseed rape, canola (Brassica napus), read-out: Visual Growth Reduction (%) 14 Days After Application BRSNN
# [5] = redroot pigweed (Amaranthus retroflexus), read-out: Visual Growth Reduction (%) 14 Days After Application AMARE
# [6] = sunflower (Helianthus annuus), read-out: Visual Growth Reduction (%) 14 Days After Application HELAN
# [7] = velvetleaf (Abutilon theophrasti), read-out: Visual Growth Reduction (%) 14 Days After Application ABUTH
# [8] = wild poinsettia (Euphorbia heterophylla), read-out: Visual Growth Reduction (%) 14 Days After Application EPHHL
# [9] = giant foxtail (Setaria faberi), read-out: Visual Growth Reduction (%) 14 Days After Application SETFA
# [10] = maize, corn (Zea mays), read-out: Visual Growth Reduction (%) 14 Days After Application ZEAMX
# [11] = rice (Oryza sativa), read-out: Visual Growth Reduction (%) 14 Days After Application ORYSA
# [12] = wheat, spring (Triticum aestivum), read-out: Visual Growth Reduction (%) 14 Days After Application TRZAS
# [13] = yellow nutsedge (Cyperus esculentus), read-out: Visual Growth Reduction (%) 14 Days After Application CYPES
# [14] = barnyardgrass (Echinochloa crus-galli), read-out: Visual Growth Reduction (%) 14 Days After Application ECHCG
smiles,measurement,setting,value
Cc1c(-c2cc(N)c(Cl)c(C(=O)O)n2)ccc2c1OC(F)(F)O2 [Compound 36],pest or weed control at 35 g/ha,[1]; [3],0 to 29%
same,pest or weed control at 70 g/ha,[1]; [3],45 to 59%
same,pest or weed control at 140 g/ha,[1]; [3],45 to 59%
same,pest or weed control at 35 g/ha,[1]; [4],0 to 29%
same,pest or weed control at 70 g/ha,[1]; [4],30 to 44%
same,pest or weed control at 140 g/ha,[1]; [4],45 to 59%
same,pest or weed control at 35 g/ha,[1]; [5],95 to 100%
same,pest or weed control at 70 g/ha,[1]; [5],95 to 100%
same,pest or weed control at 140 g/ha,[1]; [5],95 to 100%
same,pest or weed control at 35 g/ha,[1]; [6],75 to 84%
same,pest or weed control at 70 g/ha,[1]; [6],75 to 84%
same,pest or weed control at 140 g/ha,[1]; [6],85 to 94%
same,pest or weed control at 35 g/ha,[1]; [7],0 to 29%
same,pest or weed control at 70 g/ha,[1]; [7],0 to 29%
same,pest or weed control at 140 g/ha,[1]; [7],0 to 29%
same,pest or weed control at 35 g/ha,[1]; [8],0 to 29%
same,pest or weed control at 70 g/ha,[1]; [8],0 to 29%
same,pest or weed control at 140 g/ha,[1]; [8],0 to 29%
same,pest or weed control at 35 g/ha,[2]; [9],0 to 29%
same,pest or weed control at 70 g/ha,[2]; [9],30 to 44%
same,pest or weed control at 140 g/ha,[2]; [9],45 to 59%
same,pest or weed control at 35 g/ha,[2]; [10],0 to 29%
same,pest or weed control at 70 g/ha,[2]; [10],0 to 29%
same,pest or weed control at 140 g/ha,[2]; [10],0 to 29%
same,pest or weed control at 35 g/ha,[2]; [11],0 to 29%
same,pest or weed control at 70 g/ha,[2]; [11],0 to 29%
same,pest or weed control at 140 g/ha,[2]; [11],0 to 29%
same,pest or weed control at 35 g/ha,[2]; [12],0 to 29%
same,pest or weed control at 70 g/ha,[2]; [12],0 to 29%
same,pest or weed control at 140 g/ha,[2]; [12],0 to 29%
same,pest or weed control at 35 g/ha,[2]; [13],0 to 29%
same,pest or weed control at 70 g/ha,[2]; [13],0 to 29%
same,pest or weed control at 140 g/ha,[2]; [13],0 to 29%
Nc1nc(-c2ccc3c(c2)OC(F)(F)O3)nc(C(=O)O)c1Cl [Compound 61],pest or weed control at 35 g/ha,[1]; [3],60 to 74%
same,pest or weed control at 70 g/ha,[1]; [3],60 to 74%
same,pest or weed control at 140 g/ha,[1]; [3],75 to 84%
same,pest or weed control at 35 g/ha,[1]; [4],60 to 74%
same,pest or weed control at 70 g/ha,[1]; [4],85 to 94%
same,pest or weed control at 140 g/ha,[1]; [4],75 to 84%
same,pest or weed control at 35 g/ha,[1]; [5],0 to 29%
same,pest or weed control at 70 g/ha,[1]; [5],30 to 44%
same,pest or weed control at 140 g/ha,[1]; [5],30 to 44%
same,pest or weed control at 35 g/ha,[1]; [6],60 to 74%
same,pest or weed control at 70 g/ha,[1]; [6],60 to 74%
same,pest or weed control at 140 g/ha,[1]; [6],75 to 84%
same,pest or weed control at 35 g/ha,[1]; [7],45 to 59%
same,pest or weed control at 70 g/ha,[1]; [7],60 to 74%
same,pest or weed control at 140 g/ha,[1]; [7],60 to 74%
same,pest or weed control at 35 g/ha,[1]; [8],85 to 94%
same,pest or weed control at 70 g/ha,[1]; [8],95 to 100%
same,pest or weed control at 140 g/ha,[1]; [8],95 to 100%
same,pest or weed control at 35 g/ha,[2]; [14],85 to 94%
same,pest or weed control at 70 g/ha,[2]; [14],85 to 94%
same,pest or weed control at 140 g/ha,[2]; [14],85 to 94%
same,pest or weed control at 35 g/ha,[2]; [9],60 to 74%
same,pest or weed control at 70 g/ha,[2]; [9],75 to 84%
same,pest or weed control at 140 g/ha,[2]; [9],85 to 94%
same,pest or weed control at 35 g/ha,[2]; [11],0 to 29%
same,pest or weed control at 70 g/ha,[2]; [11],45 to 59%
same,pest or weed control at 140 g/ha,[2]; [11],60 to 74%
same,pest or weed control at 35 g/ha,[2]; [12],60 to 74%
same,pest or weed control at 70 g/ha,[2]; [12],75 to 84%
same,pest or weed control at 140 g/ha,[2]; [12],75 to 84%
same,pest or weed control at 35 g/ha,[2]; [13],0 to 29%
same,pest or weed control at 70 g/ha,[2]; [13],0 to 29%
same,pest or weed control at 140 g/ha,[2]; [13],45 to 59%
